Earlier results on three molecules are cited in patent publication US7855206B2, “Tricyclic heteroaromatic compounds as dipeptidyl peptidase-IV inhibitors for the treatment or prevention of diabetes” (Merck Sharp & Dohme Corp., priority 2006, dated 2010).

Data set [1] concerns GRF degradation in plasma.
The test system of a further data set is hematopoiesis in mouse. The settings on record: cyclophosphamide-induced neutropenia.
Data set [2] deals with cardiac allograft in rats. To be noted: doubled from day 7.

In the case of `CC[C@H](C)[C@H](N)C(=O)N1CCC[C@H]1C(=O)N[C@H](C(=O)O)[C@@H](C)CC` [diprotin A], the “effect on degradation of GRF to GRF[3-44]” value in data set [1] is reported as “prevented”.
For the molecule `CC(C)[C@H](N)C(=O)N1CCC[C@H]1B(O)O` [Val-Boro-Pro], the effect on hematopoiesis entry in the data set on hematopoiesis in mouse is given as “stimulated hematopoiesis”.
As for `CC(C)N1CCC(c2ccccc2)(c2ccccc2)CC1` [Prodipine, Pro-Pro-diphenyl-phosphonate], the cardiac allograft survival in data set [2] was 14 day.
